According to PubChem BioAssay AID248 (DTP/NCI, 2004):
Several values for one entry are separate records, joined by “and”; a condition that tells them apart may be missing. Identical values can stand only once. Toxic doses and inconclusive results are not listed. No stated cut-off is given here; in the data, active means T/C of 150% or more; inactive means T/C below 125%.

System: L1210 leukemia ip in BDF1 mice, survival T/C
Assay: NCI In Vivo Anticancer Drug Screen. Data for tumor model L1210 Leukemia (intraperitoneal) in B6D2F1 (BDF1) mice
Conditions: endpoint: mean survival time, higher = longer survival
Summary of the method: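 Survival endpoint. Drug-treated group vs vehicle group, expressed as T divided by C. Tumor passaged by transplantation.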

[1] = dose: 100.0 mg/kg/injection, schedule: Q04DX003 (ip), vehicle: saline
[2] = dose: 200.0 mg/kg/injection, schedule: Q01DX009 (ip), vehicle: saline
[3] = dose: 200.0 mg/kg/injection, schedule: Q04DX003 (ip), vehicle: saline
[4] = dose: 400.0 mg/kg/injection, schedule: Q04DX003 (ip), vehicle: saline
[5] = dose: 100.0 mg/kg/injection, schedule: Q01DX009 (ip), vehicle: Klucel (hydroxypropylcellulose) (HPC)
[6] = dose: 200.0 mg/kg/injection, schedule: Q01DX009 (ip), vehicle: Klucel (hydroxypropylcellulose) (HPC)
[7] = dose: 100.0 mg/kg/injection, schedule: Q01DX001 (ip), vehicle: saline
[8] = dose: 200.0 mg/kg/injection, schedule: Q01DX001 (ip), vehicle: saline
[9] = dose: 400.0 mg/kg/injection, schedule: Q01DX001 (ip), vehicle: saline

Measured: T/C

Cc1cc(Cl)c2cc(Cl)cc(Cl)c2n1
inactive: dose: 100.0 mg/kg/injection, schedule: Q01DX009 (ip), vehicle: saline 89 % of control | [1] 91 % of control | [2] 96 % of control | [3] 89 % of control | [4] 94 % of control

CC1(C)C/C(=C\c2cccc(Br)c2)C(=O)c2ccccc21
inactive: [5] 104 % of control | dose: 100.0 mg/kg/injection, schedule: Q04DX003 (ip), vehicle: Klucel (hydroxypropylcellulose) (HPC) 98 % of control | [6] 98 % of control | dose: 200.0 mg/kg/injection, schedule: Q04DX003 (ip), vehicle: Klucel (hydroxypropylcellulose) (HPC) 106 % of control | dose: 400.0 mg/kg/injection, schedule: Q01DX009 (ip), vehicle: Klucel (hydroxypropylcellulose) (HPC) 103 % of control | dose: 400.0 mg/kg/injection, schedule: Q04DX003 (ip), vehicle: Klucel (hydroxypropylcellulose) (HPC) 101 % of control

OCCN1CCN(C(=S)[S-])CC1.OCCN1CCN(C(=S)[S-])CC1.[Zn]
inactive: dose: 10.0 mg/kg/injection, schedule: Q04DX003 (ip), vehicle: saline 93 % of control | dose: 20.0 mg/kg/injection, schedule: Q04DX003 (ip), vehicle: saline 90 % of control

CC(CC(=O)C(F)(F)F)=NCC(C)N=C(C)CC(=O)C(F)(F)F (configuration not stated)
inactive: dose: 100.0 mg/kg/injection, schedule: Q01DX001 (ip), vehicle: other 101 % of control | dose: 100.0 mg/kg/injection, schedule: Q04DX003 (ip), vehicle: other 115 % of control | dose: 200.0 mg/kg/injection, schedule: Q01DX001 (ip), vehicle: other 86 % of control | dose: 200.0 mg/kg/injection, schedule: Q04DX003 (ip), vehicle: other 105 % of control | dose: 400.0 mg/kg/injection, schedule: Q01DX001 (ip), vehicle: other 97 % of control | dose: 400.0 mg/kg/injection, schedule: Q04DX003 (ip), vehicle: other 111 % of control

Cc1ccc(S(=O)(=O)N2CC(O)CC2C(=O)O)cc1 (configuration not stated)
inactive: dose: 100.0 mg/kg/injection, schedule: Q01DX009 (ip), vehicle: saline with Tween-80 96 % of control | dose: 100.0 mg/kg/injection, schedule: Q04DX003 (ip), vehicle: saline with Tween-80 93 % of control and 100 % of control | dose: 200.0 mg/kg/injection, schedule: Q01DX009 (ip), vehicle: saline with Tween-80 101 % of control | dose: 200.0 mg/kg/injection, schedule: Q04DX003 (ip), vehicle: saline with Tween-80 95 % of control and 103 % of control | dose: 400.0 mg/kg/injection, schedule: Q01DX009 (ip), vehicle: saline with Tween-80 101 % of control | dose: 400.0 mg/kg/injection, schedule: Q04DX003 (ip), vehicle: saline with Tween-80 93 % of control and 96 % of control

O=C1NN(c2ccccc2)CCO1
inactive: [5] 100 % of control | [6] 93 % of control

COCc1c(C)cc(C)cc1C
inactive: dose: 50.0 mg/kg/injection, schedule: Q01DX001 (ip), vehicle: saline 91 % of control | [7] 107 % of control | [8] 103 % of control | [9] 113 % of control

CCC1(Sc2ncnc3c2ncn3C2OC(CO)C(O)C2O)C(=O)NC(=O)NC1=O (configuration not stated)
inactive: [7] 114 % of control | [8] 111 % of control | [9] 120 % of control

c1ccc2c(c1)CNC2
inactive: [1] 104 % of control | [2] 94 % of control | [3] 106 % of control | dose: 400.0 mg/kg/injection, schedule: Q01DX009 (ip), vehicle: saline 92 % of control | [4] 97 % of control

COC(=O)c1ccccc1N=NNc1ccc(C)c(Cl)c1
inactive: dose: 100.0 mg/kg/injection, schedule: Q04DX002 (ip), vehicle: saline with Tween-80 94 % of control | dose: 200.0 mg/kg/injection, schedule: Q04DX002 (ip), vehicle: saline with Tween-80 94 % of control | dose: 400.0 mg/kg/injection, schedule: Q04DX002 (ip), vehicle: saline with Tween-80 87 % of control
